For the data set the following is noted: Log P, [a] LC-UV, acidic range.

Procedure: Measurement of Log P values was performed according to EEC directive 79/831 Annex V.A8 by HPLC (High Performance Liquid Chromatography) on reversed phase columns with the following methods:
[a] Log P value is determined by measurement of LC-UV, in an acidic range, with 0.1% formic acid in water and acetonitrile as eluent (linear gradient from 10% acetonitrile to 95% acetonitrile).
Calibration was done with straight-chain alkan2-ones (with 3 to 16 carbon atoms) with known Log P values (measurement of Log P values using retention times with linear interpolation between successive alkanones).

Take `C#CCOc1ccc(F)c(F)c1C1CC(c2csc(C3CCN(C(=O)Nc4cc(C)ccc4C)CC3)n2)=NO1` (stereo not shown) [Example I-3]: the chromatographic logP (as a rule, lipophilicity estimated from chromatographic retention) was 3.45.

The record behind these values is patent publication US20170137417A1 (priority 2014, published 2017).
